Results published in patent US9861640B2, “Medicament for treatment of Alzheimer's disease” (KEMPHYS LTD., priority 2013, dated 2018).

Experiments:
RXRs = settings: cited from earlier work
RARγ = RARγ (Homo sapiens, UniProt P13631); settings: [50]; cited from earlier work
Ide mRNA = assay: Quantitative RT-PCR of Ide mRNA in brains of APP23 mice; assay type: in vivo, mouse; settings: day 18, vs vehicle, Am80/HX630 P<0.05, HX630 P=0.062 (not significant)
Description: (§1) APP23 mice begin forming amyloid deposits when they are 6 months old, but memory deficits in the MWM test appear quite early (before 3 months of age). Here, we used 8.5-month-old male APP23 mice and their WT littermates (C57BL/6J). We used stratified random sampling to divide mice (four to six per cage) into four groups to equalize the mean body weight of the study groups: mice given 0.5 mg/kg/d Am80, those given 5 mg/kg/d HX630, those given the mixture of 0.5 mg/kg/d Am80 and 5 mg/kg/d HX630, and those given the vehicle. Am80 and HX630 were suspended in 0.5% (w/v) carboxymethylcellulose solution and were orally administered to mice at 0.5 mg/kg (Am80) or 5 mg/kg (HX630) for 17 consecutive days (once daily at 18:00). Control animals received the same volume of 0.5% (w/v) carboxymethylcellulose solution orally, without the other compounds. We set the 0.5 mg/kg/d dose for Am80 on the basis that this had been found effective in other in vivo studies, such as those by Kawahara et al. and Ishido and Shudo [37]. […]
Total RNA from the cerebral hemispheres, hippocampus, or MG5 cells was prepared by guanidinium thiocyanate-phenol-chloroform extraction. […] Quantitative real-time PCRs were carried out by using the LightCycler 1.5 system (Roche, Mannheim, Germany) with the FastStart DNA Master SYBR Green I LightCycler kit (Roche). […]

Cd36 mRNA = assay: RT-PCR of Cd36 mRNA in brains of APP23 mice; assay type: in vivo, mouse; settings: Am80 0.5 and/or HX630 5 mg/kg/d, day 18
Description: as §1, with “compounds.” for “compounds. We set the 0.5 mg/kg/d dose for Am80 on the basis that this had been found effective in other in vivo studies, such as those by Kawahara et al. and Ishido and Shudo [37].”
For semi-quantitative RT-PCR analysis, PCRs were carried out with Quick Taq HS DyeMix (DTM-101; Toyobo Co. Ltd., Osaka, Japan). […] Semi-quantitative PCR consisted of an initial denaturation cycle at 94° C. for 2 min, followed by 40 cycles for Cd36, 35 cycles for Mme, 30 cycles for Ide, and 26 cycles for β-actin. […] Densitometric quantification was done with the Image Gauge software program (Fuji Photo Film Co., Tokyo, Japan). […]

IL-4 = IL-4 sandwich ELISA of hippocampus, correlation with MWM; assay type: in vivo, mouse; settings: APP23 mice; day 18; P=0.096 (HX630), P=0.087 (Am80/HX630)

RARγ, sequence (P13631 whole entry, species assumed): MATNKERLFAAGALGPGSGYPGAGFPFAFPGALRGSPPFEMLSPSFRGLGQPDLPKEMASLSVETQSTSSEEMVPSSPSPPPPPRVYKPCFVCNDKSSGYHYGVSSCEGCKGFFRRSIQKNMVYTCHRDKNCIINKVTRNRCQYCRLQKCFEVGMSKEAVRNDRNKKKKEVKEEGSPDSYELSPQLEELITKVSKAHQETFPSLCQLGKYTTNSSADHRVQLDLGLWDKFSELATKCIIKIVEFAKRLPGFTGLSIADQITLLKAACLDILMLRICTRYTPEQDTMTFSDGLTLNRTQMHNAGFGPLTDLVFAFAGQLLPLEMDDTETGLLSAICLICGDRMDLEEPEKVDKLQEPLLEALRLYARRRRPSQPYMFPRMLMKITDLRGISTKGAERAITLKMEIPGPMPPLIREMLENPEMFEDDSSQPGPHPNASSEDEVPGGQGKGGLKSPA

SMILES	binding affinity for RXRs (and RARγ) (RXRs)	binding to RARγ (RARγ)	Ide mRNA level in brain (Ide mRNA)	Cd36 mRNA level (Cd36 mRNA)	hippocampal IL-4 levels (IL-4)
CC1(C)CCC(C)(C)c2cc(NC(=O)c3ccc(C(=O)O)cc3)ccc21 [Am80, 4-{(5,6,7,8-tetrahydro-5,5,8,8-tetramethyl-2-naphthalenyl)carbamoyl}benzoic acid]	little or no binding affinity	hardly binds			
CN1c2ccccc2N=C(c2ccc(C(=O)O)cc2)c2cc3c(cc21)C(C)(C)CCC3(C)C [HX630, 4-[5H-2,3-(2,5dimethyl-2,5-hexano)-5-methyldibenzo[b,e]-diazepin-11-yl]benzoic acid]			slight increase	increased	the increase was statistically insignificant
